Here are results for 15 compounds from patent publication US8466088B2, “Herbicidal compositions containing benzoylpyrazole compounds” (Ishihara Sangyo Kaisha, Ltd., priority 2007, dated 2013).

The subject of assay [1] is crabgrass. Kind of assay: Example 1: pot test, foliar treatment, visually observed growth inhibition of crabgrass. It is filed as in vivo. From the text:
(§1) When the herbicidal activity in a case where two active ingredients are combined, is larger than the simple sum of the respective herbicidal activities of the two active ingredients (the expected activity), it is called a synergistic effect. The activity expected by the combination of two active ingredients can be calculated as follows (Colby S. R., “Weed”, vol. 15, p. 20-22, 1967). E=α+β−(α×β+100) where
(§2) α: growth inhibition rate when treated with x (g/ha) of herbicide X,
(§3) β: growth inhibition rate when treated with y (g/ha) of herbicide Y,
(§4) E: growth inhibition rate expected when treated with x (g/ha) of herbicide X and y (g/ha) of herbicide Y.
(§5) That is, when the actual growth inhibition rate (measured value) is larger than the growth inhibition rate by the above calculation (calculated value), the activity by the combination can be regarded as showing a synergistic effect.
(§6) Upland field soil was put into a 1/1,000,000 hectare pot, and seeds of various plants were sown. When the respective plants reached predetermined leaf stage, herbicidal compositions in predetermined amounts were diluted with water in an amount corresponding to 300 L/ha and applied for foliar treatment by a small sprayer.
(§7) Further, in accordance with the above Colby's formula, the growth inhibition rate (calculated value) was calculated. In Tables, with respect to the compound A, Compound Nos. in Table 1 or 3 are described, and with respect to other herbicidal compounds, common names are described.

Assay [2] concerns velvetleaf. In words: Example 1: pot test, foliar treatment, visually observed growth inhibition of velvetleaf. Format: in vivo, Abutilon theophrasti MEDIC.
Description: as §1, §2, §3, §4, §5, §6, §7

Setting [3] is: 3.2 to 4.3 leaf stage, 21st day after application, 125 g/ha.
Where [4] appears, read: Abutilon theophrasti, foliar, 2.5 to 3.3 leaf stage, 21st day after application, read-out: Growth inhibition rate (%) of velvetleaf, Measured value.
Where [5] appears, read: Abutilon theophrasti, foliar, 3.2 to 4.1 leaf stage, 21st day after application, read-out: Growth inhibition rate (%) of velvetleaf, Measured value.
[6] abbreviates: Digitaria sanguinalis, foliar, read-out: Growth inhibition rate (%) of crabgrass, Measured value.

Like-named read-outs stand apart in the source and are kept apart here.

As to `CCOC(=O)COc1ccc(Cl)cc1Cl` [2,4-D-ethyl], the “Growth inhibition rate (%) of crabgrass, Measured value” in assay [1] (setting [3]) turned out to be 0%; in assay [1] (3.6 to 4.5 leaf stage, 14th day after application, 100 g/ha) it was 0%; in assay [1] (3.6 to 4.5 leaf stage, 22nd day after application, 200 g/ha), 25%. In addition, the “Growth inhibition rate (%) of velvetleaf, Measured value” in assay [2] (2.4 to 3.2 leaf stage, 22nd day after application, 63 g/ha) was determined as 30%; in assay [2] (setting [3]) it was 50%.
One may read the inhibition as the drop in the measured response relative to a control, in per cent. As to `CC(C)N1C(=O)c2ccccc2NS1(=O)=O` [Bentazone-sodium], the inhibition at 200 g/ha in assay [1] (Digitaria sanguinalis, foliar, 3.2 to 4.1 leaf stage, 21st day after application, 200 g/ha, read-out: Growth inhibition rate (%) of crabgrass, Measured value) stood at 0%; in assay [1] (Digitaria sanguinalis, foliar, 4.1 to 5.3 leaf stage, 14th day after application, 200 g/ha, read-out: Growth inhibition rate (%) of crabgrass, Measured value), 0%; in assay [2] (Abutilon theophrasti, foliar, 3.0 to 4.0 leaf stage, 21st day after application, 200 g/ha, read-out: Growth inhibition rate (%) of velvetleaf, Measured value), 20%. In assay [2] (Abutilon theophrasti, foliar, 2.0 to 2.5 leaf stage, 21st day after application, 150 g/ha, read-out: Growth inhibition rate (%) of velvetleaf, Measured value), the inhibition at 150 g/ha worked out at 95%. Further, in assay [2] (Abutilon theophrasti, foliar, 3.0 to 4.0 leaf stage, 21st day after application, 100 g/ha, read-out: Growth inhibition rate (%) of velvetleaf, Measured value), the inhibition at 100 g/ha came out at 0%.
For `N#Cc1cc(Br)c(O)c(Br)c1` [Bromoxynil, bromoxynil, reference compound], the inhibition at 165 g/ha in assay [1] (Digitaria sanguinalis, foliar, 2.7 to 3.6 leaf stage, 21st day after application, read-out: Growth inhibition rate (%) of crabgrass, Measured value) is 0%; in assay [1] (Digitaria sanguinalis, foliar, 4.0 to 5.0 leaf stage, 21st day after application, read-out: Growth inhibition rate (%) of crabgrass, Measured value), 0%; in assay [2] (setting [4]) it was 40%; in assay [2] (setting [5]) it was 30%; in assay [2] (Abutilon theophrasti, foliar, 4.0 to 4.4 leaf stage, 22nd day after application, read-out: Growth inhibition rate (%) of velvetleaf, Measured value), 50%. The inhibition at 77 g/ha in assay [1] (Digitaria sanguinalis, foliar, 4.0 to 5.0 leaf stage, 21st day after application, 77 g/ha, read-out: Growth inhibition rate (%) of crabgrass, Measured value) came out at 0%; in assay [2] (setting [4]) it was 30%; in assay [2] (setting [5]) it was 0%. For the same compound, the inhibition at 62.5 g/ha in assay [2] (Abutilon theophrasti, foliar, 2.4 to 3.2 leaf stage, on the 22nd day after application, foliar, active ingredient amount 62.5 g/ha, read-out: Growth inhibition rate (%) of velvetleaf, Measured value) was 35%.
Turning to `CCCCCCCC(=O)Oc1c(Br)cc(C#N)cc1Br` [Bromoxynil-octanoate], the inhibition at 63 g/ha is 0% in assay [1] (Digitaria sanguinalis, foliar, 3.5 to 4.0 leaf stage, 21st day after application, 63 g/ha, read-out: Growth inhibition rate (%) of crabgrass, Measured value); 25% in assay [2] (Abutilon theophrasti, foliar, 2.0 to 2.5 leaf stage, 21st day after application, 63 g/ha, read-out: Growth inhibition rate (%) of velvetleaf, Measured value); 45% in assay [2] (Abutilon theophrasti, foliar, 3.3 to 4.2 leaf stage, 22nd day after application, 63 g/ha, read-out: Growth inhibition rate (%) of velvetleaf, Measured value). The inhibition at 50 g/ha was determined as 0% in assay [2] (Abutilon theophrasti, foliar, 3.0 to 3.8 leaf stage, 15th day after application, read-out: Growth inhibition rate (%) of velvetleaf, Measured value); 20% in assay [2] (Abutilon theophrasti, foliar, 3.2 to 5.0 leaf stage, 14th day after application, read-out: Growth inhibition rate (%) of velvetleaf, Measured value); 10% in assay [2] (Abutilon theophrasti, foliar, 3.2 to 5.0 leaf stage, 21st day after application, read-out: Growth inhibition rate (%) of velvetleaf, Measured value); 0% in assay [2] (Abutilon theophrasti, foliar, 3.5 to 4.3 leaf stage, 21st day after application, read-out: Growth inhibition rate (%) of velvetleaf, Measured value). The inhibition at 125 g/ha in assay [2] (Abutilon theophrasti, foliar, 3.3 to 4.2 leaf stage, 22nd day after application, 125 g/ha, read-out: Growth inhibition rate (%) of velvetleaf, Measured value) worked out at 50%.
In the case of `CCOC(=O)C(Cl)Cc1cc(-n2nc(C)n(C(F)F)c2=O)c(F)cc1Cl` (stereo not shown) [Carfentrazone-ethyl], the inhibition at 2.5 g/ha came to 0% in assay [1] (setting [6]) and 65% in assay [2] (Abutilon theophrasti, foliar, read-out: Growth inhibition rate (%) of velvetleaf, Measured value, 3.2 to 4.3 leaf stage, 21st day after application, 2.5 g/ha). Besides, the inhibition at 5 g/ha in assay [1] (setting [6]) came out at 0%; in assay [2] (Abutilon theophrasti, foliar, read-out: Growth inhibition rate (%) of velvetleaf, Measured value, 2.0 to 2.5 leaf stage, 21st day after application), 98%; in assay [2] (Abutilon theophrasti, foliar, read-out: Growth inhibition rate (%) of velvetleaf, Measured value, 3.3 to 4.3 leaf stage, 20th day after application), 80%.
`COCC(C)N(C(=O)CCl)c1c(C)csc1C` (stereo not shown) [Dimethenamid]: the inhibition at 125 g/ha in assay [2] (Abutilon theophrasti, foliar, 2.0 to 2.5 leaf stage, 21st day after application, 125 g/ha, read-out: Growth inhibition rate (%) of velvetleaf, Measured value) was 0%.
In the case of `COc1cc(OC)nc(NC(=O)NS(=O)(=O)c2cc(NC=O)ccc2C(=O)N(C)C)n1` [Foramsulfuron], the inhibition at 15 g/ha in assay [2] (Abutilon theophrasti, foliar, 2.0 to 2.8 leaf stage, 21st day after application, 15 g/ha, read-out: Growth inhibition rate (%) of velvetleaf, Measured value) came to 0%. Moreover, the inhibition at 30 g/ha in assay [2] (Abutilon theophrasti, foliar, 2.0 to 2.8 leaf stage, 21st day after application, 30 g/ha, read-out: Growth inhibition rate (%) of velvetleaf, Measured value) was 25%.
Regarding `CP(=O)(O)CCC(N)C(=O)O` (stereo not shown) [Glufosinate-ammonium], the inhibition at 100 g/ha in assay [2] (Abutilon theophrasti, foliar, read-out: Growth inhibition rate (%) of velvetleaf, Measured value, 3.3 to 4.3 leaf stage, 20th day after application, 100 g/ha) turned out to be 0%. Besides, the inhibition at 200 g/ha in assay [2] (Abutilon theophrasti, foliar, read-out: Growth inhibition rate (%) of velvetleaf, Measured value, 3.3 to 4.3 leaf stage, 20th day after application, 200 g/ha) was found to be 10%.
In the case of `N.O=C(O)CNCP(=O)(O)O` [Glyphosate-ammonium], the “Growth inhibition rate (%) of velvetleaf, Measured value” in assay [2] (2.6 to 3.3 leaf stage, 20th day after application, 63 g/ha) worked out at 0%; in assay [2] (3.0 to 4.0 leaf stage, 21st day after application, 200 g/ha), 0%; in assay [2] (3.2 to 5.0 leaf stage, 14th day after application, 75 g/ha), 0%; in assay [2] (3.5 to 4.1 leaf stage, 14th day after application, 100 g/ha), 25%; in assay [2] (3.5 to 4.1 leaf stage, 14th day after application, 200 g/ha), 50%; in assay [2] (3.5 to 4.1 leaf stage, 20th day after application, 75 g/ha), 0%. The “Growth inhibition rate (%) of velvetleaf, Measured value” stood at 0% in assay [2] (3.5 to 4.1 leaf stage, 20th day after application, 150 g/ha) and 0% in assay [2] (3.5 to 4.3 leaf stage, 21st day after application, 75 g/ha).
For `O=C(O)CNCP(=O)([O-])O.[K+]` [Glyphosate-potassium], the “Growth inhibition rate (%) of crabgrass, Measured value” in assay [1] (3.3 to 4.2 leaf stage, 28th day after application, 75 g/ha) worked out at 0%.
Turning to `CSc1nnc(C(C)(C)C)c(=O)n1N` [Metribuzin], the inhibition at 125 g/ha in assay [1] (Digitaria sanguinalis, foliar, 3.2 to 4.2 leaf stage, 21st day after application, 125 g/ha, read-out: Growth inhibition rate (%) of crabgrass, Measured value) is 15%. For the same compound, in assay [1] (Digitaria sanguinalis, foliar, 3.2 to 4.2 leaf stage, 21st day after application, 250 g/ha, read-out: Growth inhibition rate (%) of crabgrass, Measured value), the inhibition at 250 g/ha came to 20%.
For `CCSC(=O)Oc1c(C(=O)c2ccc(S(C)(=O)=O)c(C(=O)OC)c2C)cnn1C` [No. 1, 5-(ethylthio)carbonyloxy-1-methylpyrazol-4-yl 3-(methoxycarbonyl)-2-methyl-4-(methylsulfonyl)phenyl ketone], in assay [1] (Digitaria sanguinalis, foliar, 3.2 to 4.3 leaf stage, on the 22nd day after application, foliar, active ingredient amount 15 g/ha, read-out: Growth inhibition rate (%) of crabgrass, Measured value), the inhibition at 15 g/ha came out at 65%.
For `Cn1nc(C(F)(F)F)c(CS(=O)(=O)C2=NOC(C)(C)C2)c1OC(F)F` [Pyroxasulfone], in assay [2] (Abutilon theophrasti, foliar, 3.5 to 4.0 leaf stage, 14th day after application, read-out: Growth inhibition rate (%) of velvetleaf, Measured value), the inhibition at 50 g/ha was 40%. Also, the inhibition at 100 g/ha in assay [2] (Abutilon theophrasti, foliar, 3.5 to 4.0 leaf stage, 14th day after application, 100 g/ha, read-out: Growth inhibition rate (%) of velvetleaf, Measured value) was 50%.
For `CCS(=O)(=O)c1cccnc1S(=O)(=O)NC(=O)Nc1nc(OC)cc(OC)n1` [Rimsulfuron], in assay [2] (Abutilon theophrasti, foliar, 3.0 to 4.0 leaf stage, 21st day after application, 10 g/ha, read-out: Growth inhibition rate (%) of velvetleaf, Measured value), the inhibition at 10 g/ha is 75%. In assay [2] (Abutilon theophrasti, foliar, 3.0 to 4.0 leaf stage, 21st day after application, 20 g/ha, read-out: Growth inhibition rate (%) of velvetleaf, Measured value), the inhibition at 20 g/ha was determined as 95%. The inhibition at 7 g/ha in assay [2] (Abutilon theophrasti, foliar, 3.2 to 4.3 leaf stage, 21st day after application, 7 g/ha, read-out: Growth inhibition rate (%) of velvetleaf, Measured value) amounted to 50%.
As for `COc1nc(NC(=O)NS(=O)(=O)c2ccccc2C(F)(F)F)nc(C(F)(F)F)n1` [Tritosulfuron], in assay [1] (3.2 to 4.2 leaf stage, 21st day after application, 15 g/ha), the “Growth inhibition rate (%) of crabgrass, Measured value” is 0%.
